In test [1] the test system is 6-OHDA-lesioned S1R KO mice. Particulars: 0.3 mg/kg, 5 weeks, vs saline.
Description: The study was performed in male C57B16J mice weighing approx. 25 g and having an age of 8 to 9 weeks at the beginning of the experiments. A total of 65 wild-type mice and 52 S1R knockout (KO) mice were used. S1R knockout mice and wild-type littermates (both genders) were bred on a C57BL6J background. Our S1R KO line is derived from the well-characterized Sigmar1^Gt(OST422756)Lex mouse strain distributed by the Mutant Mouse Resource Regional Centre (MMRRC) The mice were housed under a 12-h light/dark cycle with free access to food and water.
6-OHDA-HCl (Sigma-Aldrich AB, Stockholm, Sweden) was freshly dissolved in 0.02% ascorbate-saline at the concentration of 3.2 mg free base per milliliter. […] The solution was injected via a glass capillary (tip diameter−50 (1 m) at the rate of 0.5 (1 L/min, and the capillary was left in place for 2 mi after each injection.
The first injection was given immediately upon completion of lesion surgery. […] Full rotations (continuous turns of 360) were counted off-line by an experimentally blinded investigator. Data are expressed as the total number of net full turns ipsilateral to the lesion per test session.
The number of supporting wall contacts performed independently by the paw contralateral to the lesion was expressed as a percentage of all supporting wall contacts in each session. […]
The test system of test [2] is GDNF, BDNF, phosphorylated ERK1/2. Particulars: 0.3 mg/kg, 35 days. As to the method:
Animals prepared for Western blot analysis were euthanized by cervical dislocation; their brains were rapidly extracted and frozen on crushed dry ice. Tissue samples were dissected out in a cryostat chamber (−14° C.). […] The striatum was dissected out using a scalpel blade. Tissue samples from the substantia nigra were taken with a tissue puncher of 2 mm diameter spanning across rostrocaudal levels −2.70 to −3.80 relative to the bregma. The samples were kept frozen until further analysis.
Tissue homogenates were prepared in cell lysis buffer (20 mmol/LTris (pH 7.5), 150 mmol/L NaCl, 1 mmol/L EDTA, 1 mmol/L EGTA, 1% Triton X-100, 2.5 mmol/L sodium pyrophosphate, 1 mmol/L |3-glycerolphosphate, 1 mmol/L Na3VO4, […] leupeptin, and 1 mmol/L phenylmethylsulfonyl fluoride). Twenty micrograms of protein was separated on a 10% SDS polyacrylamide gel. […] Thereafter, membranes were incubated overnight at 4° C. using one of the following primary antibodies: rabbit polyclonal anti-GDNF (Santa Cruz Biotechnology, Inc., Santa Cruz, CA; 1:1000) and monoclonal anti-BDNF (Santa Cruz Biotechnology, Inc., 1:1000); rabbit polyclonal antibodies against Thr202/Tyr204-phosphorylated ERK1/2 (p44/42-MAPK; Cell Signaling Technology Inc., Danvers, MA, 1:2000). Following appropriate washing steps, membranes were incubated with HRP-linked secondary antibodies (Sigma-Aldrich, Deisenhofen, Germany; 1:15000). Signals were visualized using a chemiluminescence kit (Merck Millipore, Watford, Hertfordshire, UK), and images were acquired using a CCD camera (LAS1000 system, Fuji Films, Tokyo, Japan). Optical density was measured on specific immunoreactive bands using NIH Image J software. Membranes were then stripped and reprobed with |-actin antibodies (Sigma-Aldrich, 1:50,000). The optical density of specific bands was then normalized to the |-actin band in the same lane.

The target in test [3] is S1R (Mus musculus, UniProt O55242). To be noted: both doses of 0.3 and 1 mg/kg; judged plausible from Ki and free brain concentration.
Test [4] has as its system TH-positive neurons in the substantia nigra compacta. To be noted: 35 days. As to the method:
Mice allocated to immunohistochemistry were perfusion-fixed on the day after the last rug/saline administration (interval of approx. 20 h from the last injection). Animals were deeply anesthetized with sodium pentobarbital (240 mg/kg, i.p.) and transcardially perfused with 0.9% saline solution, followed by ice-cold buffered 4% paraformaldehyde (pH 7.4). […] Coronal sections of 30 (1 m thickness were cut on a sliding microtome and stored at −20° C. in a nonfreezing solution (30% ethylene glycol and 30% glycerol in 0.1 M phosphate buffer).
Immunohistochemistry and quantitative analyses were performed according to established protocols [Francardo V, Bez F, Wieloch T, Nissbrandt H, Ruscher K, Cenci 33. MA. Neurobiology of Disease. […] Experimental Eye Research. […] (rabbit anti-TH antiserum from Pel-Freez, Rogers, AR, 1:1000) and Cluster of Differentiation 68 (CD68) (rat anti-CD68 antiserum from AbD Serotec, Kidlington, Oxfordshire, UK; 1:1000). Quantitative analyses were performed by an experimentally blinded investigator using the following methods.
The number of TH-positive cell bodies in the substantia nigra compacta (SNc) was determined using unbiased stereology according to the optical fractionator method as in [West M J. Stereological methods for estimating the total number of neurons and synapses: issues of precision and bias. Trends in Neurosciences.
Analysis was performed using a Nikon 80i microscope with an x-y motorized stage controlled by the NewCAST software (Visiopharm). The sampling fraction was chosen so as to count at least 100 neurons per side per animal following an established protocol [Francardo V, Recchia A, Popovic N, Andersson D, Nissbrandt H, Cenci M A. Impact of the lesion procedure on the profiles of motor impairment and molecular responsiveness to L-DOPA in the 6-hydroxydopamine mouse model of Parkinson's disease. Neurobiology of Disease. […] Trends in Neurosciences.

The subject of test [5] is B104 neuroblastoma cell line. Particulars: 100 nM and 1 μM; vs control untreated cells; cited from earlier work.
Test [6] concerns TH immunostaining, ventrolateral and dorsolateral striatum. The text has this: Results were expressed as the total number of TH-immunopositive pixels per sample area (averaged across areas). […] The high-magnification analysis of TH fibers on random sample areas was complemented by optical density (O.D.) measurements of TH immunostaining across the entire dorsolateral and ventro-lateral striatum. Although this method is much less sensitive than the actual fiber analysis [Francardo V, Bez F, Wieloch T, Nissbrandt H, Ruscher K, Cenci 33. MA. […] Brain: A Journal of Neurology.
The O.D. analysis was carried out in the same rostrocaudal levels using NIH Image J Software, as described in [Francardo V, Recchia A, Popovic N, Andersson D, Nissbrandt H, Cenci M A. Impact of the lesion procedure on the profiles of motor impairment and molecular responsiveness to L-DOPA in the 6-hydroxydopamine mouse model of Parkinson's disease. Neurobiology of Disease.

Read-outs that look alike come from different tables or passages of the source.

S1R, sequence (O55242 whole entry): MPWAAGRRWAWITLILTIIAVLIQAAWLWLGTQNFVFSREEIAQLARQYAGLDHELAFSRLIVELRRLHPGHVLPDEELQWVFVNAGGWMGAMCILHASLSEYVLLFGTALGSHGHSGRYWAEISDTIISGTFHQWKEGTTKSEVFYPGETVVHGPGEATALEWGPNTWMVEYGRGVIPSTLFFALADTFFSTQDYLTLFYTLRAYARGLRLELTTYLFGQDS

`CCCN1CCC(c2cccc(S(C)(=O)=O)c2)CC1` [pridopidine, 4-[3-(methylsulfonyl)phenyl]-1-propyl-piperidine]: the “spontaneous rotations and forelimb use asymmetry (cylinder test, stepping test)” value in test [1] is listed as “does not improve motor deficits”. Further, in test [2] (striatum), the “striatal BDNF level vs saline” value is reported as “+80.8%”, the “striatal GDNF level vs saline” value is on record as “+37.6%” and the “striatal phosphorylated ERK1/2 vs saline” value is recorded as “+71%”. Also, in test [2] (substantia nigra), the “BDNF level in the SN vs saline” value is reported as “+88.5%”, the “GDNF level in the SN vs saline” value was “only BDNF levels showed a significant increase” and the “nigral phosphorylated ERK1/2 vs saline” value is reported as “reached significance only in the striatum”. Also, in test [3], the “occupancy of the S1R at Cmax” value is 100%. In test [4] (0.3 mg/kg s.c. daily), the “increase in TH-positive neurons relative to saline treatment” value was roughly 55% and the “number of TH-positive neurons, SNc ipsilateral to the lesion” value is 3034 cells. Moreover, the “number of TH-positive neurons, SNc ipsilateral to the lesion” value in test [4] (1.0 mg/kg s.c. daily) is given as roughly 1901 cells. Besides, the “protection of dopaminergic cell bodies in SNc” value in test [4] (1.0 mg/kg s.c. daily, vs saline) is recorded as “did not, however, confer significant protection of dopaminergic cell bodies in SNc”. Besides, in test [5], the BDNF secretion result is “enhanced BDNF secretion”. For the same molecule, the “TH O.D. vs saline” value in test [6] (0.3 mg/kg, dorsolateral striatum) is “significant, albeit smaller increase”. The “TH O.D. above saline control levels” value in test [6] (0.3 mg/kg, ventrolateral striatum) was “greater than twofold increase”. For the same molecule, the “TH O.D. vs saline” value in test [6] (1 mg/kg, dorsolateral striatum) is “only a trend”. Further, the “TH O.D. vs saline” value in test [6] (1 mg/kg, ventrolateral striatum) is recorded as “trend towards an increase that did not reach statistical significance”.

(Values after patent US12357624B2, “Low dose pridopidine for Parkinson's Disease and other diseases associated with parkinsonism” (PRILENIA NEUROTHERAPEUTICS LTD., priority 2019, dated 2025).)
